Active and inactive are the calls of the source. The calls are words filed in the database; no cut-off is given here.
Tests used:
Pseudomonas aeruginosa [1] = assay: Antibiofilm activity against Pseudomonas aeruginosa assessed as inhibition of biofilm formation at 50 uM incubated for 24 hrs by crystal violet staining based analysis relative to control; assay type: functional
Pseudomonas aeruginosa [2] = assay: Antibacterial activity against Pseudomonas aeruginosa assessed as inhibition of bacterial growth at 50 uM incubated for 24 hrs by microdilution method; assay type: functional, organism-based
Klebsiella pneumoniae [3] = assay: Antibacterial activity against Klebsiella pneumoniae assessed as inhibition of bacterial growth at 50 uM incubated for 24 hrs by microdilution method; assay type: functional, organism-based
Staphylococcus aureus [4] = assay: Antibiofilm activity against Staphylococcus aureus assessed as inhibition of biofilm formation at 50 uM incubated for 24 hrs by crystal violet staining based analysis relative to control; assay type: functional
Staphylococcus aureus [5] = assay: Antibacterial activity against Staphylococcus aureus assessed as inhibition of bacterial growth at 50 uM incubated for 24 hrs by microdilution method; assay type: functional, organism-based
Klebsiella pneumoniae [6] = assay: Antibiofilm activity against Klebsiella pneumoniae assessed as inhibition of biofilm formation at 50 uM incubated for 24 hrs by crystal violet staining based analysis relative to control; assay type: functional
[7] = Inhibition of quorum sensing system in Chromobacterium violaceum assessed as inhibition of violacein secretion by measuring inhibition halo at 100 uM
[8] = Inhibition of quorum sensing system in Chromobacterium violaceum assessed as inhibition of violacein secretion by measuring inhibition halo at 50 uM
[9] = Cytotoxicity against green monkey COS-7 cells assessed as inhibition of cell growth at 100 uM relative to control; assay type: toxicity, cell-based; details: chlorocebus aethiops
[10] = Aqueous solubility of compound; assay type: physicochemical; details: buffer
[11] = tested on: Rhodopseudomonas palustris; assay: Antibiofilm activity against Rhodopseudomonas palustris assessed as inhibition of biofilm formation at 1 uM relative to control; assay type: functional

For `O=C(/C=C/c1cccnc1)N[C@H]1CCOC1=O`, the inhibition at 50 µM (Pseudomonas aeruginosa [1]) was 14.2%, the Activity (Pseudomonas aeruginosa [2]) was “inactive” and the Activity (Klebsiella pneumoniae [3]) was “inactive”. For the same compound, the inhibition at 50 µM (Staphylococcus aureus [4]) was 0%, the Activity (Staphylococcus aureus [5]) was “inactive” and the inhibition at 50 µM (Klebsiella pneumoniae [6]) was 0%.
With `Cc1ccc(/C=C/C(=O)N[C@H]2CCOC2=O)cc1` the inhibition at 50 µM (Pseudomonas aeruginosa [1]) was 29.8%, the Activity (Pseudomonas aeruginosa [2]) was “inactive” and the Activity (Klebsiella pneumoniae [3]) was “inactive”. The inhibition at 50 µM (Staphylococcus aureus [4]) was 4.4%, the inhibition zone (IZ) [7] was 2 mm and the Activity (Staphylococcus aureus [5]) was “inactive”. For the same compound, the inhibition at 50 µM (Klebsiella pneumoniae [6]) was 16.9% and the inhibition zone (IZ) [8] was 1.3 mm.
For `O=C(/C=C/c1cccs1)N[C@H]1CCOC1=O`, the inhibition at 50 µM (Pseudomonas aeruginosa [1]) was 19.6%, the Activity (Pseudomonas aeruginosa [2]) was “inactive” and the Activity (Klebsiella pneumoniae [3]) was “inactive”. The inhibition at 50 µM (Staphylococcus aureus [4]) was 15.3%, the Activity (Staphylococcus aureus [5]) was “inactive” and the inhibition at 50 µM (Klebsiella pneumoniae [6]) was 12.6%.
For `COc1ccc(/C=C/C(=O)N[C@H]2CCOC2=O)cc1`, the inhibition at 50 µM (Pseudomonas aeruginosa [1]) was 35.9%, the Activity (Pseudomonas aeruginosa [2]) was “inactive” and the Activity (Klebsiella pneumoniae [3]) was “inactive”. For the same compound, the inhibition at 50 µM (Staphylococcus aureus [4]) was 8.49%, the inhibition zone (IZ) [7] was 0.3 mm and the Activity (Staphylococcus aureus [5]) was “inactive”. The inhibition at 50 µM (Klebsiella pneumoniae [6]) was 12% and the inhibition zone (IZ) [8] was 0.6 mm.
In the case of `O=C(/C=C/c1ccco1)N[C@H]1CCOC1=O`, the inhibition at 50 µM (Pseudomonas aeruginosa [1]) is reported as 24.3%, the Activity (Pseudomonas aeruginosa [2]) is reported as “inactive” and the Activity (Klebsiella pneumoniae [3]) is reported as “inactive”. The inhibition at 50 µM (Staphylococcus aureus [4]) was 18.2%, the Activity (Staphylococcus aureus [5]) was “inactive” and the inhibition at 50 µM (Klebsiella pneumoniae [6]) was 0%.
In the case of `O=C(/C=C/c1ccc(C(F)(F)F)cc1)N[C@H]1CCOC1=O`, the inhibition at 50 µM (Pseudomonas aeruginosa [1]) is reported as 0%, the Activity (Pseudomonas aeruginosa [2]) is reported as “inactive” and the Activity (Klebsiella pneumoniae [3]) is reported as “inactive”. For the same compound, the inhibition at 50 µM (Staphylococcus aureus [4]) was 2.2%, the Activity (Staphylococcus aureus [5]) was “inactive” and the inhibition at 50 µM (Klebsiella pneumoniae [6]) was 30.2%.
For `O=C(/C=C/C=C/c1ccccc1)N[C@H]1CCOC1=O`, the inhibition at 50 µM (Pseudomonas aeruginosa [1]) was 30.2%, the Activity (Pseudomonas aeruginosa [2]) was “inactive” and the Activity (Klebsiella pneumoniae [3]) was “inactive”. It also gave an inhibition at 50 µM (Staphylococcus aureus [4]) of 14%, an inhibition zone (IZ) [7] of 2.7 mm and an inhibition at 100 µM [9] of 0%. The Activity (Staphylococcus aureus [5]) was “inactive”, the inhibition at 50 µM (Klebsiella pneumoniae [6]) was 28.3% and the inhibition zone (IZ) [8] was 2.2 mm.
In the case of `COc1cccc(/C=C/C(=O)N[C@H]2CCOC2=O)c1`, the inhibition at 50 µM (Pseudomonas aeruginosa [1]) is reported as 0%, the Activity (Pseudomonas aeruginosa [2]) is reported as “inactive” and the Activity (Klebsiella pneumoniae [3]) is reported as “inactive”. For the same compound, the inhibition at 50 µM (Staphylococcus aureus [4]) was 27.3%, the Activity (Staphylococcus aureus [5]) was “inactive” and the inhibition at 50 µM (Klebsiella pneumoniae [6]) was 22.3%. The solubility [10] was “Insoluble”.
In the case of `O=C(/C=C/c1ccc2c(c1)OCO2)N[C@H]1CCOC1=O`, the inhibition at 50 µM (Pseudomonas aeruginosa [1]) is reported as 0%, the Activity (Pseudomonas aeruginosa [2]) is reported as “inactive” and the Activity (Klebsiella pneumoniae [3]) is reported as “inactive”. The inhibition at 50 µM (Staphylococcus aureus [4]) was 5%, the Activity (Staphylococcus aureus [5]) was “inactive” and the inhibition at 50 µM (Klebsiella pneumoniae [6]) was 27.1%. The solubility [10] was “Insoluble”.
For `O=C(/C=C/c1ccc(F)cc1)N[C@H]1CCOC1=O`, the inhibition at 50 µM (Pseudomonas aeruginosa [1]) was 20.3%, the Activity (Pseudomonas aeruginosa [2]) was “inactive” and the Activity (Klebsiella pneumoniae [3]) was “inactive”. The inhibition at 50 µM (Staphylococcus aureus [4]) was 0%, the Activity (Staphylococcus aureus [5]) was “inactive” and the inhibition at 50 µM (Klebsiella pneumoniae [6]) was 0%.
For `COc1cc(/C=C/C(=O)N[C@H]2CCOC2=O)cc(OC)c1OC`, the inhibition at 50 µM (Pseudomonas aeruginosa [1]) was 26.9%, the Activity (Pseudomonas aeruginosa [2]) was “inactive” and the Activity (Klebsiella pneumoniae [3]) was “inactive”. It also gave an inhibition at 50 µM (Staphylococcus aureus [4]) of 37.1%, an inhibition zone (IZ) [7] of 3.7 mm and an inhibition at 100 µM [9] of 3.2%. The Activity (Staphylococcus aureus [5]) was “inactive”, the inhibition at 50 µM (Klebsiella pneumoniae [6]) was 0% and the inhibition zone (IZ) [8] was 2.7 mm.
For `Cn1cccc1/C=C/C(=O)N[C@H]1CCOC1=O`, the inhibition at 50 µM (Pseudomonas aeruginosa [1]) was 0%, the Activity (Pseudomonas aeruginosa [2]) was “inactive” and the Activity (Klebsiella pneumoniae [3]) was “inactive”. The inhibition at 50 µM (Staphylococcus aureus [4]) was 0%, the Activity (Staphylococcus aureus [5]) was “inactive” and the inhibition at 50 µM (Klebsiella pneumoniae [6]) was 0%. For the same compound, the solubility [10] was “Insoluble”.
In the case of `O=C(/C=C/c1ccccc1)N[C@H]1CCOC1=O`, the inhibition at 50 µM (Pseudomonas aeruginosa [1]) is reported as 29.1%, the Activity (Pseudomonas aeruginosa [2]) is reported as “inactive” and the Activity (Klebsiella pneumoniae [3]) is reported as “inactive”. The inhibition at 50 µM (Staphylococcus aureus [4]) was 18%, the inhibition zone (IZ) [7] was 0.6 mm and the Activity (Staphylococcus aureus [5]) was “inactive”. It also gave an inhibition at 50 µM (Klebsiella pneumoniae [6]) of 0% and an inhibition zone (IZ) [8] of 1.3 mm.
With `O=C(/C=C/c1ccc(Cl)cc1)N[C@H]1CCOC1=O` the inhibition at 50 µM (Pseudomonas aeruginosa [1]) was 23.7%, the Activity (Pseudomonas aeruginosa [2]) was “inactive” and the Activity (Klebsiella pneumoniae [3]) was “inactive”. The inhibition at 50 µM (Staphylococcus aureus [4]) was 12%, the Activity (Staphylococcus aureus [5]) was “inactive” and the inhibition at 50 µM (Klebsiella pneumoniae [6]) was 0%. For the same compound, the inhibition at 1 µM [11] was 30%.
With `CC(C)c1ccc(/C=C/C(=O)N[C@H]2CCOC2=O)cc1` the inhibition at 50 µM (Pseudomonas aeruginosa [1]) was 23.7%, the Activity (Pseudomonas aeruginosa [2]) was “inactive” and the Activity (Klebsiella pneumoniae [3]) was “inactive”. For the same compound, the inhibition at 50 µM (Staphylococcus aureus [4]) was 16.1%, the Activity (Staphylococcus aureus [5]) was “inactive” and the inhibition at 50 µM (Klebsiella pneumoniae [6]) was 17.9%.
For `Cn1c(/C=C/C(=O)N[C@H]2CCOC2=O)cc2ccccc21`, the inhibition at 50 µM (Pseudomonas aeruginosa [1]) was 0%, the Activity (Pseudomonas aeruginosa [2]) was “inactive” and the Activity (Klebsiella pneumoniae [3]) was “inactive”. The inhibition at 50 µM (Staphylococcus aureus [4]) was 0.5%, the Activity (Staphylococcus aureus [5]) was “inactive” and the inhibition at 50 µM (Klebsiella pneumoniae [6]) was 0%. For the same compound, the solubility [10] was “Insoluble”.
In the case of `O=C(/C=C/c1ccc(-c2ccccc2)cc1)N[C@H]1CCOC1=O`, the inhibition at 50 µM (Pseudomonas aeruginosa [1]) is reported as 0%, the Activity (Pseudomonas aeruginosa [2]) is reported as “inactive” and the Activity (Klebsiella pneumoniae [3]) is reported as “inactive”. The inhibition at 50 µM (Staphylococcus aureus [4]) was 8.4%, the Activity (Staphylococcus aureus [5]) was “inactive” and the inhibition at 50 µM (Klebsiella pneumoniae [6]) was 0%. For the same compound, the solubility [10] was “Insoluble”.
With `CC(C)=CCC/C(C)=C/C(=O)N[C@H]1CCOC1=O` the inhibition at 50 µM (Pseudomonas aeruginosa [1]) was 25.3%, the Activity (Pseudomonas aeruginosa [2]) was “inactive” and the Activity (Klebsiella pneumoniae [3]) was “inactive”. The inhibition at 50 µM (Staphylococcus aureus [4]) was 26.5%, the Activity (Staphylococcus aureus [5]) was “inactive” and the inhibition at 50 µM (Klebsiella pneumoniae [6]) was 24.5%.
With `O=C(/C=C/c1cccc(F)c1)N[C@H]1CCOC1=O` the inhibition at 50 µM (Pseudomonas aeruginosa [1]) was 0%, the Activity (Pseudomonas aeruginosa [2]) was “inactive” and the Activity (Klebsiella pneumoniae [3]) was “inactive”. For the same compound, the inhibition at 50 µM (Staphylococcus aureus [4]) was 0%, the Activity (Staphylococcus aureus [5]) was “inactive” and the inhibition at 50 µM (Klebsiella pneumoniae [6]) was 0%. For the same compound, the solubility [10] was “Insoluble”.
`O=C1C=C(Br)/C(=C/Br)O1` gave an inhibition at 50 µM (Pseudomonas aeruginosa [1]) of 40.2%, an inhibition at 50 µM (Staphylococcus aureus [4]) of 10.1% and an inhibition zone (IZ) [7] of 5.1 mm. For the same compound, the inhibition at 50 µM (Klebsiella pneumoniae [6]) was 8.4% and the inhibition zone (IZ) [8] was 1.3 mm.

— ChEMBL document CHEMBL5356979, “Synthesis, antibiofilm activity and molecular docking of N-acylhomoserine lactones containing cinammic moieties” (Bioorg Med Chem Lett, 2024)
